Patent publication US20260207563A1, “UREA COMPOUNDS AS ACTIVATORS OF POTASSIUM CHANNELS KV7.2/7.3 USEFUL IN THE TREATMENT OF CNS AND PNS DISORDERS” (ANGELINI PHARMA S.P.A., priority 2022, published 2026)

Experiments:
Assay type in all cases: cell-based
[1] = biological target: T1, heteromeric KV7.2/KV7.3 channels (KCNQ2, KCNQ3) (Homo sapiens, UniProt O43525+O43526); assay: Automated patch-clamp (Sophion Qube 384) potency assay against KV7.2/KV7.3 channels; conditions: CHO-K1/Kv7.2/Kv7.3 cells; for EC50: EC50 from concentration-response of shift in Vhalf, 10 concentrations up to 30 μM, read-out: Kv7.2/7.3 EC50; for Kv7.2/7.3 ΔV1/2: maximal shift in the Vhalf from the top of the curve
T1 construct: expressed in transfected cells; host or cells: CHO-K1
Text: Assessment of In Vitro Potency Against KV7.2/KV7.3 Channels
An automated patch-clamp assay on the Sophion Qube 384 was developed for potency testing to identify small molecule activators of heteromeric KV7.2/KV7.3 channels (KCNQ2, Uniprot ID 043526; KCNQ3, Uniprot 043525).
The cell line used was a stably transfected CHO-K1 cell line with constitutive KV7.2/KV7.3 expression.
CHO-K1/Kv7.2/Kv7.3 cells were maintained in the following culture media: • DMEM/F-12 with GlutaMAX™ (Gibco 31331-028), • 10% Fetal clone 2 serum (Perbio Science SH30066.03), • 1 mg/ml Geneticin™ selective antibiotic (G418, Invitrogen 1013027), and • 5 μg/ml BlasticidinS HCl (Invivogen Ant-bl-5).
On the day of the experiment, cells were resuspended in serum free media, counted and diluted to a final concentration of 3.5×10^6 cells per ml of media.
Cells were then placed onto the Sophion Qube 384 and rested for a minimum of 1 hour.
The following solutions were used for recording: • extracellular solution (in mM): 145 NaCl, 4 KCl, 1 MgCl2, 2 CaCl2), 10 HEPES, 10 glucose, pH 7.4, 315-320 mOsm. • intracellular solution (in mM): 120 KCl, 5.74 CaCl2), 1.75 MgCl2, 10 EGTA, 10 HEPES, 5 Na2ATP, pH 7.2, adjusted to 315 mOsm with sucrose.
After establishing the whole-cell configuration, cells were held at −80 mV throughout the experiment. A current-voltage (I-V) protocol stepping from −100 to +20 mV for 1 second was applied to measure Kv7.2/Kv7.3 currents, each step was followed by a 200 ms pulse to 0 mV to measure the tail currents. From the I-V protocol a Boltzmann fit was applied to generate activation curves. Data were sampled at 25 kHz and filtered at 5 kHz (Bessel). Data were produced using multihole QChips. The I-V protocol was applied several times to establish the response in control conditions (typically 0.3% DMSO) and in the presence of the test compound.
Data were reviewed in Sophion Analyser version 6.5.2 (Sophion Bioscience) for recording quality and filters were applied to remove any failed wells. Leak subtraction was applied to all recordings. Data filters for multihole QChips were typically: seal resistance>4 MΩ, capacitance >20 pF, baseline VHalf between 0 to −40 mV, baseline holding current between −2 to 2 nA, baseline steady state current at 20 mV >4 nA unless otherwise stated.
(§1) Analysis of Data for Assessment of Potency
(§2) 10 concentrations of test compounds were applied to individual wells in quadruplicate to assess potency as a 1 in 3 dilution series from the maximal concentration of 30 μM. The average shift in the voltage for half activation (Vhalf) for each concentration was used to generate concentration-response curves fitted with a 4-parameter logistic model to estimate the EC50 from the point of inflection of the curve and the maximal shift in the Vhalf from the top of the curve.
(§3) The lower the EC50 value, the higher the potency of the analyzed compound. The selectivity criteria is assigned on the basis of the maximal shift in the Vhalf at 30 μM. […] In Table 3, ND means that selectivity was not determined.

[2] = biological target: T2, heteromeric KV7.3/KV7.5 channel (KCNQ3, KCNQ5) (Homo sapiens, UniProt O43525+Q9NR82); assay: Automated patch-clamp counter-screening against KV7.3/KV7.5 channel; conditions: HEK293 cells expressing Kv7.3/KV7.5; class by maximal shift in the Vhalf at 30 μM
T2 construct: host or cells: HEK293
Description: Assessment of in vitro potency against KV7.3/KV7.5 channels
Counter-screening was also carried out against the heteromeric KV7.3/KV7.5 channel (KCNQ3, Uniprot ID 043525; KCNQ5, Uniprot ID Q9NR82). The cell line used was a stably transfected HEK293 cell line with constitutive Kv7.3 expression and tetracycline inducible KV7.5 expression supplied by Charles River Laboratories.
Cells were maintained in the following culture media: • DMEM/F-12 with GlutaMAX™ (Life Technologies 31331-028), • 10% Tet Systems FCS (Clonetech 631106), • 500 μg/ml Geneticin™ selective antibiotic (G418, Invitrogen 1013-027), • 5 μg/ml Blasticidin S HCl (InvivoGen ant-bl-5), and • 100 μg/ml Zeocin (InvivoGen: ant-zn-5).
(§4) Cell maintenance, preparation, recording conditions and voltage protocols were all identical to those above.
as §1, §2, §3

[3] = biological target: T3, homomeric KV7.4 channel (KCNQ4) (Homo sapiens, UniProt P56696); assay: Automated patch-clamp (Qube) counter-screening assay against KV7.4 channel; conditions: CHO-K1 cells expressing KV7.4; class by maximal shift in the Vhalf at 30 μM
T3 construct: host or cells: CHO-K1
Text: Assessment of In Vitro Potency Against KV7.4 Channels
A counter-screening assay was also developed on the Qube against the homomeric KV7.4 channel (KCNQ4, Uniprot ID P56696). The cell line used was a stably transfected CHO-K1 with constitutive KV7.4 expression supplied by Charles River Laboratories.
CHO-K1 cells stably expressing KV7.4 channels were maintained in the following culture media: • Hams F-12 with GlutaMAX™ (Life Technologies 31765027), • 10% Fetal clone 2 serum (Perbio Science SH30066.03), and • 250 μg/ml Geneticin™ selective antibiotic (G418, Invitrogen 1013-027).
as §4, §1, §2, §3

| SMILES | EC50 [1] | Kv7.2/7.3 ΔV1/2 [1] | Kv7.3/7.5 selectivity criteria [2] | Kv7.4 selectivity criteria [3] |
| --- | --- | --- | --- | --- |
| C#CCOc1cc(CNC(=O)N[C@@H]2CCCc3c(F)cccc32)ccn1 [Compound 217] | 1.76 µM | 29.44 mV | – | – |
| C[C@@H](Oc1cc(CNC(=O)N[C@@H]2COc3ccccc3C2)ncn1)C(F)(F)F [Compound 221] | 3.2 µM | 35.15 mV | – | – |
| O=C(NCc1ccnc(OCC(F)(F)F)c1)N[C@@H]1COC[C@H]1Oc1cccc(F)c1 [Compound 222] | 4.16 µM | 28.1 mV | – | – |
| C[C@@H](Oc1cc(CNC(=O)N[C@@H](C2CC2)C(F)(F)F)ncn1)C(F)(F)F [Compound 223] | 7.4 µM | 41.12 mV | – | – |
| C[C@@H](Oc1cc(CNC(=O)N[C@H](C2CC2)C(F)(F)F)ncn1)C(F)(F)F [Compound 224] | 3.43 µM | 37.09 mV | – | – |
| C[C@@H](Oc1cc(CNC(=O)N[C@@H]2CCOc3cc(F)ccc32)ncn1)C(F)(F)F [Compound 225] | 6.41 µM | 42.13 mV | – | – |
| C[C@@H](NC(=O)NCc1ccnc(OCC(F)(F)F)c1)c1ccc2c(c1)OC(F)(F)O2 [Compound 226] | 1.83 µM | 22.4 mV | – | – |
| C[C@@H](NC(=O)NCc1ccnc(OCC(F)(F)F)c1)c1cccc2c1OC(F)(F)O2 [Compound 227] | 1.86 µM | 31.71 mV | – | – |
| O=C(NCc1ccnc(OCC(F)(F)F)c1)N[C@H]1CN(CC(F)(F)F)C[C@@H]1c1ccccc1 [Compound 231] | > 30 µM | 49.96 mV | – | – |
| O=C(NCc1ccnc(OCC(F)(F)F)c1)N[C@@H]1CN(CC(F)(F)F)C[C@H]1c1ccccc1 [Compound 232] | 1.43 µM | 23.95 mV | – | – |
| COc1ccc([C@H](NC(=O)NCc2ccnc(OCC(F)(F)F)c2)C(F)(F)F)cc1 [Compound 233] | 2.52 µM | 28.00 mV | – | – |
| O=C(NCc1ccnc(OCC(F)(F)F)c1)N[C@@H]1COC[C@H]1Oc1ccc(F)cc1 [Compound 234] | 5.26 µM | 27.37 mV | – | – |
| C[C@@H](NC(=O)NCc1ccnc(OCC(F)(F)F)c1)c1ccc(OC(F)(F)F)cc1 [Compound 238] | 2.91 µM | 24.31 mV | – | – |
| O=C(NCc1ccnc(OCC(F)(F)F)c1)N[C@@H]1CCO[C@H]1c1ccc(F)cc1 [Compound 242] | 2.98 µM | 34.51 mV | – | – |
| O=C(NCc1ccnc(OCC(F)(F)F)c1)N[C@@H]1COC[C@H]1Oc1ccccc1F [Compound 243] | 3.73 µM | 26.56 mV | – | – |
| C[C@@H](Oc1cc(CNC(=O)NCC23CC(F)(C2)C3)ncn1)C(F)(F)F [Compound 244] | 7.59 µM | 26.21 mV | – | – |
| O=C(NCc1ccnc(OCC(F)(F)F)c1)N[C@@H]1CCO[C@H](c2ccc(F)cc2)C1 [Compound 245] | 2.19 µM | 46.39 mV | – | – |
| O=C(NCc1ccnc(OCC(F)(F)F)c1)N[C@@H]1COc2cc(OC(F)(F)F)ccc21 [Compound 249] | 3.42 µM | 26.44 mV | – | – |

Continued, in another order:

| EC50 [1] | Kv7.2/7.3 ΔV1/2 [1] | SMILES | Kv7.3/7.5 selectivity criteria [2] | Kv7.4 selectivity criteria [3] |
| --- | --- | --- | --- | --- |
| 2.39 µM | 21.49 mV | O=C(NCc1ccnc(OCc2ccccc2)c1)NCC(O)C1(C(F)(F)F)CC1 (racemic) [Compound 5, (±)-1-((2-(Benzyloxy)pyridin-4-yl)methyl)-3-(2-hydroxy-2-(1-(trifluoromethyl)cyclopropyl)ethyl)urea] | A (Selective compounds showed Kv7.4 and/or Kv7.3/7.5 ΔV1/2 equal to or lower than 15 mV (letter A in table 3)) | A (Selective compounds showed Kv7.4 and/or Kv7.3/7.5 ΔV1/2 equal to or lower than 15 mV (letter A in table 3)) |
| 1.4 µM | 49.32 mV | O=C(NCc1ccnc(OCC(F)(F)F)c1)N[C@@H]1CCCc2c(F)cccc21 [Compound 216] | – | – |
| 8 µM | 21.41 mV | O=C(NCc1ccnc(OCC(F)(F)F)c1)NC1(C(F)(F)F)COC1 [Compound 218] | – | – |
| 2.26 µM | 35.95 mV | O=C(NCc1ccnc(OCC(F)(F)F)c1)NCC12CC(F)(C1)C2 [Compound 219] | – | – |
| 11.8 µM | 29.83 mV | O=C(NCc1ccnc(OCC(F)(F)F)c1)N[C@H]1COC[C@H]1c1ccc(F)cc1 [Compound 220] | – | – |
| 0.97 µM | 20.27 mV | O=C(NCc1ccnc(OCC(F)(F)F)c1)NCC12CC(C(F)(F)F)(C1)C2 [Compound 228] | – | – |
| 12.7 µM | 76.14 mV | O=C(NCc1ccnc(OCC(F)(F)F)c1)N[C@@H]1COC[C@H]1c1ccc(F)cc1 [Compound 229] | – | – |
| 1.77 µM | 20.02 mV | O=C(NCc1ccnc(OCC(F)(F)F)c1)N[C@H]1COC[C@@H]1c1ccc(F)cc1 [Compound 230] | – | – |
| 6.22 µM | 21.79 mV | O=C(NCc1ccnc(OCC(F)(F)F)c1)N[C@@H]1COC2(CC2)C1 [Compound 235] | – | – |
| 11.9 µM | 31.52 mV | O=C(NCc1ccnc(OCC(F)(F)F)c1)N[C@H]1C[C@H]2CC[C@@H]1O2 [Compound 236] | – | – |
| 11.7 µM | 29.76 mV | O=C(NCc1ccnc(OCC(F)(F)F)c1)N[C@@H]1C[C@@H]2CC[C@H]1O2 [Compound 237] | – | – |
| 5.1 µM | 20.11 mV | O=C(NCc1ccnc(OCC(F)(F)F)c1)NCC12CC(F)(CO1)C2 [Compound 239] | – | – |
| 11.7 µM | 46.27 mV | O=C(NCc1ccnc(OCC(F)(F)F)c1)N[C@H]1COC2(CC2)C1 [Compound 240] | – | – |
| 3.32 µM | 36.71 mV | COc1cccc(N2C[C@H](NC(=O)NCc3ccnc(OCC(F)(F)F)c3)C(F)(F)C2)c1 [Compound 241] | – | – |
| 1.76 µM | 22.48 mV | Cn1ncc(C(F)(F)F)c1COc1cc(CNC(=O)NCCC2(C(F)(F)F)CC2)ccn1 [Compound 246] | – | – |
| 5.05 µM | 24.56 mV | Cc1cnc(COc2cc(CNC(=O)NCCC3(C(F)(F)F)CC3)ccn2)o1 [Compound 247] | – | – |
| 2.61 µM | 23.91 mV | O=C(NCc1ccnc(OCC(F)(F)F)c1)NCc1ccnc(OCC(F)(F)F)c1 [Compound 248] | – | – |
| 2.58 µM | 21.04 mV | O=C(NCCC1(C(F)(F)F)CC1)NCc1ccnc(OCC2CC2(F)F)c1 (centres unmarked) [Compound 250] | – | – |
